Measured values reported in ChEMBL document CHEMBL5214927, “Recent advance on carbamate-based cholinesterase inhibitors as potential multifunctional agents against Alzheimer's disease” (Eur J Med Chem, 2022).

What was measured:
Cholinesterase [1] = molecular target: T1, Cholinesterase (Homo sapiens, UniProt P06276); experiment: Inhibition of BChE (unknown origin)
Acetylcholinesterase [2] = molecular target: T2, Acetylcholinesterase (Rattus norvegicus, UniProt P37136); experiment: Inhibition of Sprague-Dawley rat cortex AChE using acetylthiocholine iodide as substrate incubated for 15 mins in presence of iso-OMPA inhibitor by Ellman's method
T2 sequence (P37136 whole entry): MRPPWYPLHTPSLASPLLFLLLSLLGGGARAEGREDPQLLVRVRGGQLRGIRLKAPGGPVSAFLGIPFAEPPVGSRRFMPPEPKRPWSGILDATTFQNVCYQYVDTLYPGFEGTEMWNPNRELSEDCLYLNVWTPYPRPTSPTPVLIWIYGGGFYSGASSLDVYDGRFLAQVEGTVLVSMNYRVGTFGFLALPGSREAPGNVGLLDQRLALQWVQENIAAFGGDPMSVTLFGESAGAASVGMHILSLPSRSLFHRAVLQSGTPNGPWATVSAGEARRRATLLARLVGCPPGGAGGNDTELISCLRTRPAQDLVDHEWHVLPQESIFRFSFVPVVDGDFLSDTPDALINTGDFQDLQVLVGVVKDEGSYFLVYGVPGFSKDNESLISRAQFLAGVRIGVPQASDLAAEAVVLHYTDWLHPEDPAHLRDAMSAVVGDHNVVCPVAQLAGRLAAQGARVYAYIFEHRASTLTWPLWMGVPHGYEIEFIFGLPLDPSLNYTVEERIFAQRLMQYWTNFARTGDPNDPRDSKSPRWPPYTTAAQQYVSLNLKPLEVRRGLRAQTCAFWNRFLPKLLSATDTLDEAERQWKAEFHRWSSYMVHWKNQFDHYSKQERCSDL

Cholinesterase [3] = molecular target: Cholinesterase (Equus caballus, UniProt P81908); experiment: Inhibition of equine BChE
Acetylcholinesterase [4] = molecular target: T3, Acetylcholinesterase (Homo sapiens, UniProt P22303); experiment: Inhibition of recombinant human AChE
Acetylcholinesterase [5] = molecular target: T4, Acetylcholinesterase (Electrophorus electricus, UniProt O42275); experiment: Inhibition of electric eel AChE
[6] = Selectivity index, ratio of IC50 for electric eel AChE to IC50 for equine BChE
Acetylcholinesterase [7] = molecular target: T4, Acetylcholinesterase; experiment: Inhibition of electric eel AChE using acetylthiocholine iodide as substrate incubated for 30 mins by Ellman's method
Acetylcholinesterase [8] = molecular target: T4, Acetylcholinesterase; experiment: Binding affinity to electric eel AChE assessed as inhibition constant using acetylthiocholine iodide as substrate incubated for 30 mins by Ellman's method
Acetylcholinesterase [9] = molecular target: T3, Acetylcholinesterase; experiment: Inhibition of AChE (unknown origin)
[10] = molecular target: T5, Cholinesterases; ACHE & BCHE (Homo sapiens) (UniProt P06276+P22303); experiment: Selectivity index, ratio of IC50 for AChE (unknown origin) to BChE (unknown origin); assay type: protein assay
Cholinesterase [11] = molecular target: T1, Cholinesterase; experiment: Inhibition of human BChE
[12] = molecular target: T6, Amine oxidase [flavin-containing] A (Homo sapiens, UniProt P21397); experiment: Inhibition of MAO-A (unknown origin)
T6 sequence (P21397 whole entry): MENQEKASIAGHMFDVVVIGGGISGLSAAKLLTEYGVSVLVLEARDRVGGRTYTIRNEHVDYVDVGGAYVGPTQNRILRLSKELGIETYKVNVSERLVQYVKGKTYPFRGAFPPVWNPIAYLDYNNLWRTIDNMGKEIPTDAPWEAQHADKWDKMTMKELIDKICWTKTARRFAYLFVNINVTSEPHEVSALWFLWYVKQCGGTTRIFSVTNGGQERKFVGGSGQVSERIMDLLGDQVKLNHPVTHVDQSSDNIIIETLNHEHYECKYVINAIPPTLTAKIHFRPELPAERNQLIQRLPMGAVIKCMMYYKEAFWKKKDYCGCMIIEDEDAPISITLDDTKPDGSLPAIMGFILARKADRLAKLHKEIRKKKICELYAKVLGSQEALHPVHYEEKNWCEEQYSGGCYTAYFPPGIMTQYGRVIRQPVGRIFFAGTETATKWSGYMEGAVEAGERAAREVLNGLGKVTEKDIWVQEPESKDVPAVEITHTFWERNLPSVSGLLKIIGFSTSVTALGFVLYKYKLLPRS

[13] = molecular target: T7, Amine oxidase [flavin-containing] B (Homo sapiens, UniProt P27338); experiment: Inhibition of MAO-B (unknown origin)
T7 sequence (P27338 whole entry): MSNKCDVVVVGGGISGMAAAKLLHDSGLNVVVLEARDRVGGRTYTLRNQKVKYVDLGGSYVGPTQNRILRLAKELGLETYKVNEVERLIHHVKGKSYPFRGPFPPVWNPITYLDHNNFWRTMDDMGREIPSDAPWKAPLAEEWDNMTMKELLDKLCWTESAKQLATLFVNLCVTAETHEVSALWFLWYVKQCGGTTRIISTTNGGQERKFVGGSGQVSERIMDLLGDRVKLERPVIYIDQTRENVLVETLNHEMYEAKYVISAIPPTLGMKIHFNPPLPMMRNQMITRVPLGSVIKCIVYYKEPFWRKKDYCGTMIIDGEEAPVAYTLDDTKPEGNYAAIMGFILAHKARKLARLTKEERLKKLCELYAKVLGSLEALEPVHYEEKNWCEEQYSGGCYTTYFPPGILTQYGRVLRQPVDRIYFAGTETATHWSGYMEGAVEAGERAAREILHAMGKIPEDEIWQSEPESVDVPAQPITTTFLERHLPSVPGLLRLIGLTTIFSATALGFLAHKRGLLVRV

Cholinesterase [14] = molecular target: T1, Cholinesterase; experiment: Inhibition of human serum BChE using butyrylthiocholine as substrate by Ellman's method
Acetylcholinesterase [15] = molecular target: T3, Acetylcholinesterase
Description: Inhibition of human erythrocyte AChE using acetylthiocholine iodide as substrate preincubated for 30 mins followed by substrate addition measured after 5 mins by Ellman's method

[16] = molecular target: T5, Cholinesterases; ACHE & BCHE (Homo sapiens); experiment: Selectivity index, ratio of IC50 for recombinant human serum BChE to IC50 for recombinant human serum AChE; assay type: protein assay
Acetylcholinesterase [17] = molecular target: T3, Acetylcholinesterase; experiment: Inhibition of human AChE

T1 sequence (P06276 whole entry): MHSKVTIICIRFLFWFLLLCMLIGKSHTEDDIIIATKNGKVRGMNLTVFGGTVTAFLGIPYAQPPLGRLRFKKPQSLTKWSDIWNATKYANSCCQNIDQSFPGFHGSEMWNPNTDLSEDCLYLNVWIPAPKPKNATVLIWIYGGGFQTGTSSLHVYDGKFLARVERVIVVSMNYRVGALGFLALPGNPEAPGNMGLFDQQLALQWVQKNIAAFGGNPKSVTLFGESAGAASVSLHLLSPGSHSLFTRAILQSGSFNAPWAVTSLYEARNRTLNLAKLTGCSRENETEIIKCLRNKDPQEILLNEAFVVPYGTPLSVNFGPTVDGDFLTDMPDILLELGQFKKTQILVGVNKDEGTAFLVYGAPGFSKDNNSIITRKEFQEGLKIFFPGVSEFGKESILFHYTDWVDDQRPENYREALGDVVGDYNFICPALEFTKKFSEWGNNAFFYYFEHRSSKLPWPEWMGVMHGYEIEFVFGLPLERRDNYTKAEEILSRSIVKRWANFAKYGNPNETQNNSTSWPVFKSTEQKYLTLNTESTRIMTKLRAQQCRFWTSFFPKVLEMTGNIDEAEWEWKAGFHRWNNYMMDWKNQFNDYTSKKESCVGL
T5 sequence (P06276 whole entry, looked up): as the sequence (P06276 whole entry) above
T5 sequence (P22303 whole entry, looked up): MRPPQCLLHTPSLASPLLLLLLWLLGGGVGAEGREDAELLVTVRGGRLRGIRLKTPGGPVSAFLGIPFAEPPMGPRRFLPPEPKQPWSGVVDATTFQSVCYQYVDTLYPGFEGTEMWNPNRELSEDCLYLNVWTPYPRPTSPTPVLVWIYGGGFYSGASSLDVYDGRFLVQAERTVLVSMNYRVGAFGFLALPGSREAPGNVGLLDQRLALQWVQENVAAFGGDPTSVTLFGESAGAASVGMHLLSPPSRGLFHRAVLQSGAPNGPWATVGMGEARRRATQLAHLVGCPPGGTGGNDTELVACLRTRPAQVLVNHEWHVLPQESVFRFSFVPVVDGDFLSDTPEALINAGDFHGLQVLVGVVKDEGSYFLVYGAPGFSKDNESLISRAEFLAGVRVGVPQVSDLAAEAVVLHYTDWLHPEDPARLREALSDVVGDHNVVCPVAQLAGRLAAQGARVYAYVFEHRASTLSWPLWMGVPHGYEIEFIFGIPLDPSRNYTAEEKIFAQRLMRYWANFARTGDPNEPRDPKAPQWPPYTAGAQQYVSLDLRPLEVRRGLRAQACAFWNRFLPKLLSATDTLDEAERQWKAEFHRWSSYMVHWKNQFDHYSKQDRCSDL
T4 sequence (O42275 whole entry): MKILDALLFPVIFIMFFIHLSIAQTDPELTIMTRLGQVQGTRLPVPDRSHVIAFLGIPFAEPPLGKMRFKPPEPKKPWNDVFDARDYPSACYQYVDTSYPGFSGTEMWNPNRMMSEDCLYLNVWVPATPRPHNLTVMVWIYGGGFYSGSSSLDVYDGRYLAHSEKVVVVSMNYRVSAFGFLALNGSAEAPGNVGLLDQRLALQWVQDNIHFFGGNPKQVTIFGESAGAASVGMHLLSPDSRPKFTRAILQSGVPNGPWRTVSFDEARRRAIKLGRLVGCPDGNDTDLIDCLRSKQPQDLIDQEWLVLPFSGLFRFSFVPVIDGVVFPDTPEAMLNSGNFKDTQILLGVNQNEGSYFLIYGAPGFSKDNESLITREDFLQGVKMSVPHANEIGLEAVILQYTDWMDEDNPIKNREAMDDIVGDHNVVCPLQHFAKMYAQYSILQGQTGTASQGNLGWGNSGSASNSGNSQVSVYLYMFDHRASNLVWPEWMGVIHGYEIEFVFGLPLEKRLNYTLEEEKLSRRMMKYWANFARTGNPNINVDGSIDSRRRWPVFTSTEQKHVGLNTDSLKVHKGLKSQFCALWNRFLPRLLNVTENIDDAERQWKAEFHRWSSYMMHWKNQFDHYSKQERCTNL
T3 sequence (P22303 whole entry): as the sequence (P22303 whole entry, looked up) above
Cholinesterase (Equus caballus, UniProt P81908), sequence (P81908 whole entry): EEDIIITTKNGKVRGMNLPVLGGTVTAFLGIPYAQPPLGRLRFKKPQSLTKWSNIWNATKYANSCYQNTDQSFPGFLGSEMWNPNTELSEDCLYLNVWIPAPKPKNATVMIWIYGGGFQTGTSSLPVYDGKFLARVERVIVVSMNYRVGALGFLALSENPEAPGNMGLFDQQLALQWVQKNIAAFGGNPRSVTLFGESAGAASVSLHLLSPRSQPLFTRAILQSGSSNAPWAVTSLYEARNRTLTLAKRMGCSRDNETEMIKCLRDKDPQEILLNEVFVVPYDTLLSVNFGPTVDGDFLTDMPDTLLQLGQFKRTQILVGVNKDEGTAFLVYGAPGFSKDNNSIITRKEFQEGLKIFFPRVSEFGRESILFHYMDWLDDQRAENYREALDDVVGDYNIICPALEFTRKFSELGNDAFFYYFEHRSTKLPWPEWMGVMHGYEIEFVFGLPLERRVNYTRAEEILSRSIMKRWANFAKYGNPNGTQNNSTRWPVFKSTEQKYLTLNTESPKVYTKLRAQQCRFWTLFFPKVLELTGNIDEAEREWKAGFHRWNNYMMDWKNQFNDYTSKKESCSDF

SMILES: CCCCCCCNC(=O)Oc1ccc2c(c1)CN1CCc3ccc(/N=N\c4ccccc4)cc3C1N2C (stereo not drawn)
- IC50 (Cholinesterase [1]): 44.5 nM

SMILES: COc1cc(/C=C/c2ccc(OC(=O)N3CCN(C)CC3)cc2)cc(OC)c1
- IC50 (Acetylcholinesterase [2]): 8.58 µM

SMILES: O=c1ccc2ccc(OCCCCSC(=S)N3CCCCC3)cc2[nH]1
- IC50 (Cholinesterase [3]): 160 nM

SMILES: O=C1CCOc2cc(OCCCCCSC(=S)N3CCCCC3)ccc21
- IC50 (Acetylcholinesterase [4]): 0.1 µM

SMILES: CCCCCCCNC(=O)Oc1ccc(F)c(-c2coc3c4c(ccc3c2=O)OC(C)(C)C=C4)c1
- IC50 (Acetylcholinesterase [5]): 77.8 µM
- IC50 (Cholinesterase [3]): 93 nM
- Ratio IC50 [6]: 836

SMILES: COC(=O)CCC/C=C\C/C=C\C/C=C\CCOC(=O)Nc1ccc(Br)cc1
- IC50 (Acetylcholinesterase [7]): 19.2 µM
- Ki (Acetylcholinesterase [8]): 1100 nM

SMILES: CCCCCCCNC(=O)OCCN1CCN(CCCCCOc2ccc3ccc(=O)[nH]c3c2)CC1
- IC50 (Acetylcholinesterase [5]): 0.39 µM
- IC50 (Cholinesterase [3]): 1800 nM

SMILES: CCCCCCCNC(=O)Oc1ccc2[nH]cc(CCNC(=O)c3ccccc3Nc3ccccc3)c2c1
- IC50 (Acetylcholinesterase [5]): > 100 µM
- IC50 (Cholinesterase [3]): 7 nM
- Ratio IC50 [6]: > 10000

SMILES: CCNC(=O)Oc1ccc2c(c1)[C@]1(C)CCO[C@@H]1O2
- IC50 (Acetylcholinesterase [9]): 36 nM
- IC50 (Cholinesterase [1]): 6 nM
- Ratio IC50 [10]: 60

SMILES: COC(=O)CCC/C=C\C/C=C\C/C=C\CCOC(=O)Nc1ccc(OC)cc1
- IC50 (Acetylcholinesterase [7]): 24.8 µM
- Ki (Acetylcholinesterase [8]): 3480 nM

SMILES: C#CCNC1CCc2c(OC(=O)N(C)CC)cccc21 (stereo not drawn)
- IC50 (Cholinesterase [11]): 2150 nM
- IC50 [12]: 19 nM
- IC50 [13]: 830 nM
- IC50 (Acetylcholinesterase [4]): 150 µM

SMILES: CN(C)C(=O)Oc1cccc(-c2coc3c4c(ccc3c2=O)OC(C)(C)C=C4)c1
- IC50 (Acetylcholinesterase [5]): 33.6 µM
- IC50 (Cholinesterase [3]): 680 nM
- Ratio IC50 [6]: 49.3

SMILES: Cc1ccccc1NC(=O)Oc1ccc2c(c1)[C@]1(C)CCO[C@@H]1O2
- IC50 (Cholinesterase [1]): > 30000 nM

SMILES: CNC(=O)Oc1cccc(CN(C)CCCCCCCOc2ccc3c(=O)c4ccccc4oc3c2)c1
- IC50 (Cholinesterase [14]): 0.32 nM
- IC50 (Acetylcholinesterase [15]): 51.6 nM

SMILES: CN1CCN(C(=O)Oc2ccc(/C=C/c3cc(OC(=O)N4CCN(C)CC4)cc(OC(=O)N4CCN(C)CC4)c3)cc2)CC1
- IC50 (Acetylcholinesterase [2]): 6.97 µM

SMILES: CN1CC[C@@]2(C)c3cc(OC(=O)Nc4ccccc4)ccc3N(C)[C@@H]12
- Ratio IC50 [10]: 65

SMILES: CNC(=O)Oc1cccc(CN(C)CCCCCCCOc2cccc(-c3cc(=O)c4ccccc4o3)c2)c1
- Ratio IC50 [16]: 122

SMILES: CN1c2ccc(OC(=O)NCC3CCCCC3)cc2[C@]2(C)CCN(CCc3ccccc3)[C@H]12
- IC50 (Acetylcholinesterase [9]): 2500 nM
- Ratio IC50 [10]: 1390

SMILES: CCC(C)(C)NCC(O)c1cc(OC(=O)N(C)C)cc(OC(=O)N(C)C)c1 (stereo not drawn)
- Ratio IC50 [6]: > 796

SMILES: COc1ccc2[nH]cc(CCC(=O)CCCCCCNC(=O)Oc3ccc4c(c3)CN3CCc5ccccc5C3N4C)c2c1 (stereo not drawn)
- IC50 (Cholinesterase [1]): 102 nM

SMILES: CC(C)c1ccc(NC(=O)Oc2ccc3c(c2)[C@]2(C)CCN[C@@H]2N3)cc1
- Ratio IC50 [10]: 110

SMILES: CCN1/C(=C/C(C)=O)Sc2ccc(OC(=O)OCCOCCNC(=O)c3cc4c(OC(=O)N(C)C)cccc4[n+](C)c3)cc21
- IC50 (Acetylcholinesterase [17]): 81.4 nM
- IC50 (Cholinesterase [11]): 482 nM

SMILES: COC(=O)c1cc2c(OC(=O)N(C)C)cccc2[n+]([11CH3])c1
- IC50 (Acetylcholinesterase [17]): 20 nM

SMILES: CC(C)C[C@@H](CS(=O)(=O)NCc1ccc(Cl)cc1)NC(=O)OCc1ccccc1
- Ratio IC50 [6]: 10.3

SMILES: COC(=O)CCC/C=C\C/C=C\C/C=C\CCOC(=O)Nc1cccc(Cl)c1
- IC50 (Acetylcholinesterase [7]): 16.8 µM
- Ki (Acetylcholinesterase [8]): 930 nM
